Experimental findings from patent US12428406B2 (PMV Pharmaceuticals, Inc., priority 2019, dated 2025) are described below.

In the experiment the target is T1, p53 Y220C (Homo sapiens, UniProt P04637, Y220C).
T1 construct: The recombinant protein was a truncation mutant containing only amino acids 94-312 of p53; made in house; host or cells: E. coli
T1 sequence (P04637 94-312, change not shown): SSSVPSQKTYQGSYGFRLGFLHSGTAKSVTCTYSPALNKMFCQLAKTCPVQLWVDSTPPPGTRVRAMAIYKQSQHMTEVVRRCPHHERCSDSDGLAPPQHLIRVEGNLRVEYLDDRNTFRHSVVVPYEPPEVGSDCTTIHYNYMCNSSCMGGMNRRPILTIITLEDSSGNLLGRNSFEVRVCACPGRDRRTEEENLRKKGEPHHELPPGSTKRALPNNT
Put plainly: In vitro DNA binding activity assay (HTRF / TR-FRET): stabilization of p53 Y220C and increase of its DNA binding activity. Type of experiment: biochemical. The following applies: recombinant His-tagged p53 Y220C DNA binding domain (aa 94-312), biotin-labeled consensus DNA, incubated at 27° C. or 29° C. for 60 min. As to the method:
The ability of a compound of the invention to stabilize p53 Y220C and increase the DNA binding activity of p53 Y220C was measured by a homogeneous time-resolved fluorescence (HTRF) assay. Recombinant His-tagged p53 Y220C used in the HTRF assay was expressed in the bacterium E. coli.
The binding of the recombinant His-tagged p53 Y220C protein and the biotin-labeled consensus DNA was measured using fluorescence resonance energy transfer (FRET). For the FRET assay, the binding between the p53 mutant and the DNA sequence was measured by detecting the fluorescence of the interaction between an anti-His antibody conjugated to allophycocyanin (APC) and streptavidin conjugated to europium to detect the biotin-labeled DNA.
The test compounds were prepared as 4.5 mM stock solutions in dimethyl sulfoxide (DMSO). The compounds of the disclosure were used to test the stabilization of p53 Y220C and increase in DNA binding activity of p53 Y220C. The stock solutions were then serially diluted 3-fold in DMSO, and 1.2 μL of the diluted solutions was added to each well of a 384-well polypropylene black plate.
The test and control samples were spun at 1200 rpm for 1 minute and incubated at room temperature for 15 minutes. […] The plates were spun at 1200 rpm for 1 minute and incubated at room temperature for 20 minutes. The assay signals were monitored by reading excitation at 340 nm, and emission fluorescence at 615 nm and 665 nm on a plate reader.
The percentage of activation of protein DNA binding in the presence of a compound of the invention compared to the absence of the compound was denoted by a SC150 value, which indicated the concentration of the compound required to increase the DNA binding activity by 50%. The SC150 values were calculated using either Prism™ or ActivityBase™.
For orientation: Time-resolved FRET reads energy transfer from a long-lived donor to a nearby acceptor.
With `COc1cc(C(=O)NC2CCOCC2)ccc1NCC#Cc1cc2c(N[C@H]3CCN(C)C[C@H]3F)cccc2n1CC(F)(F)F` (racemic) [Compound 818A, rac-4-{[3-(4-{[(3R,4S)-3-fluoro-1-methylpiperidin-4-yl]amino}-1-(2,2,2-trifluoroethyl)-1H-indol-2-yl)prop-2-yn-1-yl]amino}-3-methoxy-N-(oxan-4-yl)benzamide], the “SC150 (concentration of the compound required to increase the DNA binding activity by 50%)” value was “+ (+ = 0 μM ≤ SC150 < 0.05 μM)”.

Consider `CCN1CC[C@H](Nc2cccc3c2cc(C#CCNc2ccc(S(C)(=O)=O)cc2OC)n3CC(F)(F)F)[C@H](F)C1` (racemic) [Compound 820A, rac-N-[(3R,4S)-1-ethyl-3-fluoropiperidin-4-yl]-2-{3-[(4-methanesulfonyl-2-methoxyphenyl)amino]prop-1-yn-1-yl}-1-(2,2,2-trifluoroethyl)-1H-indol-4-amine], for which the “SC150 (concentration of the compound required to increase the DNA binding activity by 50%)” value is “+ (+ = 0 μM ≤ SC150 < 0.05 μM)”.

In the case of `COc1cc(S(C)(=O)=O)ccc1NCC#Cc1cc2c(N(C)[C@H]3CCN(C)C[C@H]3F)cccc2n1CC(F)(F)F` (racemic) [Compound 831A, rac-N-[(3R,4S)-3-fluoro-1-methylpiperidin-4-yl]-2-{3-[(4-methanesulfonyl-2-methoxyphenyl)amino]prop-1-yn-1-yl}-N-methyl-1-(2,2,2-trifluoroethyl)-1H-indol-4-amine], the “SC150 (concentration of the compound required to increase the DNA binding activity by 50%)” value is “+ (+ = 0 μM ≤ SC150 < 0.05 μM)”.

`COc1cc(C(=O)O)ccc1NCC#Cc1cc2c(N[C@H]3CCN(C)C[C@@H]3F)cccc2n1CC(F)(F)F` (racemic) [Compound 833A, rac-4-{[3-(4-{[(3R,4R)-3-fluoro-1-methylpiperidin-4-yl]amino}-1-(2,2,2-trifluoroethyl)-1H-indol-2-yl)prop-2-yn-1-yl]amino}-3-methoxybenzoic acid]: the “SC150 (concentration of the compound required to increase the DNA binding activity by 50%)” value is recorded as “++ (++ = 0.05 μM ≤ SC150 < 0.1 μM)”.

As for `COc1cc(S(C)(=O)=O)ccc1NCC#Cc1cc2c(N[C@H]3CCN(C)C[C@H]3F)cc(F)cc2n1CC(F)(F)F` (racemic) [Compound 836A, rac-6-fluoro-N-[(3R,4S)-3-fluoro-1-methylpiperidin-4-yl]-2-{3-[(4-methanesulfonyl-2-methoxyphenyl)amino]prop-1-yn-1-yl}-1-(2,2,2-trifluoroethyl)-1H-indol-4-amine], the “SC150 (concentration of the compound required to increase the DNA binding activity by 50%)” value is “+ (+ = 0 μM ≤ SC150 < 0.05 μM)”.

Consider `COc1cc(S(C)(=O)=O)ccc1NCC#Cc1cc2c(N[C@@H]3CCN(CC(C)O)C[C@@H]3F)cccc2n1CC(F)(F)F` (mixture of isomers) [Compound 871A, 1-[(3S,4R)-3-fluoro-4-[(2-{3-[(4-methanesulfonyl-2-methoxyphenyl)amino]prop-1-yn-1-yl}-1-(2,2,2-trifluoroethyl)-1H-indol-4-yl)amino]piperidin-1-yl]propan-2-ol], for which the “SC150 (concentration of the compound required to increase the DNA binding activity by 50%)” value is reported as “+ (+ = 0 μM ≤ SC150 < 0.05 μM)”.

Regarding `CCCn1c(C#CCNc2ccc(S(C)(=O)=O)cc2OC)cc2c(N[C@H]3CCN(C[C@@H](O)COC)C[C@H]3F)cccc21` (racemic) [Compound 884A], the “SC150 (concentration of the compound required to increase the DNA binding activity by 50%)” value was “+ (+ = 0 μM ≤ SC150 < 0.05 μM)”.

Consider `COc1cc(S(C)(=O)=O)ccc1NCC#Cc1cc2c(N[C@H]3CCN(CC(=O)NCCN(Cc4ccccn4)Cc4ccccn4)C[C@H]3F)cccc2n1CC(F)(F)F` (racemic) [Compound 891A, rac-N-(2-{bis[(pyridin-2-yl)methyl]amino}ethyl)-2-[(3R,4S)-3-fluoro-4-[(2-{3-[(4-methanesulfonyl-2-methoxyphenyl)amino]prop-1-yn-1-yl}-1-(2,2,2-trifluoroethyl)-1H-indol-4-yl)amino]piperidin-1-yl]acetamide], for which the “SC150 (concentration of the compound required to increase the DNA binding activity by 50%)” value was “+ (+ = 0 μM ≤ SC150 < 0.05 μM)”.

With `COC(=O)c1ccc(NCC#Cc2cc3c(N[C@@H]4CCN(CC(C)O)C[C@@H]4F)cccc3n2CC(F)(F)F)c(OC)c1` (mixture of isomers) [Compound 900A, methyl 4-{[3-(4-{[(3S,4R)-3-fluoro-1-(2-hydroxypropyl)piperidin-4-yl]amino}-1-(2,2,2-trifluoroethyl)-1H-indol-2-yl)prop-2-yn-1-yl]amino}-3-methoxybenzoate], the “SC150 (concentration of the compound required to increase the DNA binding activity by 50%)” value is reported as “+ (+ = 0 μM ≤ SC150 < 0.05 μM)”.

For the compound `COc1cc(C(=O)O)ccc1NCC#Cc1cc2c(NC3CCN(C[C@@H](C)O)CC3F)cccc2n1CC(F)(F)F` (mixture of isomers) [Compound 911A, 4-{[3-(4-{[(3S,4R)-3-fluoro-1-(2-hydroxypropyl)piperidin-4-yl]amino}-1-(2,2,2-trifluoroethyl)-1H-indol-2-yl)prop-2-yn-1-yl]amino}-3-methoxybenzoic acid], the “SC150 (concentration of the compound required to increase the DNA binding activity by 50%)” value is recorded as “+ (+ = 0 μM ≤ SC150 < 0.05 μM)”.

For the compound `CCN1CC[C@H](Nc2cccc3c2cc(C#CCNc2ccc(C(=O)O)cc2OC)n3CC(F)(F)F)[C@H](F)C1` (racemic) [Compound 958A, 4-((3-(4-(((3R,4S)-1-ethyl-3-fluoropiperidin-4-yl)amino)-1-(2,2,2-trifluoroethyl)-1H-indol-2-yl)prop-2-yn-1-yl)amino)-3-methoxybenzoic acid], the “SC150 (concentration of the compound required to increase the DNA binding activity by 50%)” value is on record as “+ (+ = 0 μM ≤ SC150 < 0.05 μM)”.

As to `COc1cc(S(C)(=O)=O)ccc1NCC#Cc1cc2c(N[C@H]3CCOC[C@H]3F)cccc2n1CC(F)(F)F` (racemic) [Compound 1022A, rac-N-[(3R,4R)-3-fluorooxan-4-yl]-2-{3-[(4-methanesulfonyl-2-methoxyphenyl)amino]prop-1-yn-1-yl}-1-(2,2,2-trifluoroethyl)-1H-indol-4-amine], the “SC150 (concentration of the compound required to increase the DNA binding activity by 50%)” value is given as “+ (+ = 0 μM ≤ SC150 < 0.05 μM)”.

As to `COc1cc(S(C)(=O)=O)ccc1NCC#Cc1cc2c(N[C@@H]3CN(C)CC[C@@H]3F)cccc2n1CC(F)(F)F` (racemic) [Compound 1067A, rac-N-[(3R,4S)-4-fluoro-1-methylpiperidin-3-yl]-2-{3-[(4-methanesulfonyl-2-methoxyphenyl)amino]prop-1-yn-1-yl}-1-(2,2,2-trifluoroethyl)-1H-indol-4-amine], the “SC150 (concentration of the compound required to increase the DNA binding activity by 50%)” value was “+ (+ = 0 μM ≤ SC150 < 0.05 μM)”.

For the compound `COc1cc(S(C)(=O)=O)ccc1NCC#Cc1cc2c(N[C@H]3CCC[C@H](N)C3)cccc2n1CC(F)(F)F` (relative stereo) [Compound 26A, rel-(1R,3R)-N^1-(2-{3-[(4-methanesulfonyl-2-methoxyphenyl)amino]prop-1-yn-1-yl}-1-(2,2,2-trifluoroethyl)-1H-indol-4-yl)cyclohexane-1,3-diamine], the “SC150 (concentration of the compound required to increase the DNA binding activity by 50%)” value was “+ (+ = 0 μM ≤ SC150 < 0.05 μM)”.

As to `COc1cc(S(C)(=O)=O)ccc1NCC#Cc1cc2c(N[C@H]3CCC[C@@H](O)C3)cccc2n1CC(F)(F)F` (relative stereo) [Compound 30A, rel-(1R,3S)-3-[(2-{3-[(4-methanesulfonyl-2-methoxyphenyl)amino]prop-1-yn-1-yl}-1-(2,2,2-trifluoroethyl)-1H-indol-4-yl)amino] cyclohexan-1-ol], the “SC150 (concentration of the compound required to increase the DNA binding activity by 50%)” value is listed as “+ (+ = 0 μM ≤ SC150 < 0.05 μM)”.

`COc1cc(C(=O)O)ccc1NCC#Cc1cc2c(N[C@@H]3CCN(C[C@H](C)O)C[C@@H]3F)cccc2n1CC(F)(F)F` (single isomer, unassigned) [Compound 921A]: the “SC150 (concentration of the compound required to increase the DNA binding activity by 50%)” value is given as “+ (+ = 0 μM ≤ SC150 < 0.05 μM)”.

As to `COc1cc(C(=O)NCC(CO)OC)ccc1NCC#Cc1cc2c(N[C@@H]3CCN(C)C[C@@H]3F)cccc2n1CC(F)(F)F` (single isomer, unassigned) [Compound 966A], the “SC150 (concentration of the compound required to increase the DNA binding activity by 50%)” value is listed as “+ (+ = 0 μM ≤ SC150 < 0.05 μM)”.

Take `COc1cc(S(C)(=O)=O)ccc1NCC#Cc1cc2c(N[C@H]3CCN(C(C)=O)[C@@H](C)C3)cccc2n1CC(F)(F)F` (stereo in doubt) [Compound 739A, 1-{4-[(2-{3-[(4-methanesulfonyl-2-methoxyphenyl)amino]prop-1-yn-1-yl}-1-(2,2,2-trifluoroethyl)-1H-indol-4-yl)amino]-2-methylpiperidin-1-yl}ethan-1-one]: the “SC150 (concentration of the compound required to increase the DNA binding activity by 50%)” value was “+ (+ = 0 μM ≤ SC150 < 0.05 μM)”.

Take `COc1cc(S(C)(=O)=O)ccc1NCC#Cc1cc2c(N[C@H]3CCN(C)C[C@H]3F)cccc2n1CC(F)(F)F` (stereo in doubt) [Compound 773A, N-[(3R,4S)-3-fluoro-1-methylpiperidin-4-yl]-2-{3-[(4-methanesulfonyl-2-methoxyphenyl)amino]prop-1-yn-1-yl}-1-(2,2,2-trifluoroethyl)-1H-indol-4-amine]: the “SC150 (concentration of the compound required to increase the DNA binding activity by 50%)” value was “+ (+ = 0 μM ≤ SC150 < 0.05 μM)”.
